Values after ≈ are worked out from the molar mass of the structure shown. Read-outs that look alike come from different tables or passages of the source.
Key:
E. coli = E. coli growth inhibition; type: cell-based, Escherichia coli
[1] = tested on: L. donovani promastigotes; test: L. donovani promastigote growth inhibition; type: cell-based, Leishmania donovani; conditions: Leishmania donovani, read-out: L. donovani IC50
[2] = tested on: T. cruzi Dm28c intracellular amastigotes; test: T. cruzi intracellular amastigote inhibition; type: cell-based, Trypanosoma cruzi; conditions: Trypanosoma cruzi, U2OS, read-out: T. cruzi IC50 (PAR)
[3] = tested on: T. cruzi Dm28c epimastigotes; test: T. cruzi epimastigote growth inhibition; type: cell-based, Trypanosoma cruzi; conditions: Trypanosoma cruzi, read-out: T. cruzi IC50 (EPI)
in vitro [4] = conditions: human
Bacillus subtilis = test: B. subtilis growth inhibition; type: cell-based; conditions: Bacillus subtilis, read-out: Bs IC50
M. tuberculosis H37Rv = M. tuberculosis H37Rv growth inhibition; type: cell-based, Mycobacterium tuberculosis; conditions: Mycobacterium tuberculosis, H37RV, read-out: Mtb H37Rv MIC
[5] = tested on: T. brucei bloodstream forms; test: T. brucei bloodstream form growth inhibition; type: cell-based, Trypanosoma brucei; conditions: Trypanosoma brucei, read-out: T. brucei IC50
M. smegmatis = M. smegmatis cell growth inhibition; type: cell-based, Mycobacterium smegmatis; conditions: Mycolicibacterium smegmatis, read-out: Ms IC50, M. smegmatis
M. tuberculosis Erdman = M. tuberculosis Erdman growth inhibition; type: cell-based, Mycobacterium tuberculosis; conditions: Mycobacterium tuberculosis, ERDMAN, read-out: Mtb Erdman MIC
M. tuberculosis HN878 = M. tuberculosis HN878 growth inhibition; type: cell-based, Mycobacterium tuberculosis; conditions: for MIC: HN878, read-out: Mtb HN878 MIC
[6] = DSC of DSPG bilayers with inhibitor; type: physicochemical
[7] = tested on: Plasmodium falciparum asexual blood stages; test: P. falciparum asexual blood stage; type: cell-based
[8] = DSC of DMPC bilayers with inhibitor; type: physicochemical
[9] = tested on: M. abscessus smooth variant; test: microbe, parasite or virus in culture; type: cell-based; conditions: Mycobacteroides abscessus, read-out: Ma(S) MIC
in vitro [10] = conditions: human; remark: listed apart in the source
[11] = molecular target: M. tuberculosis MmpL3 (MtMmpL3) (Mycobacterium tuberculosis, UniProt P9WJV5); test: Surface plasmon resonance binding to MmpL3
[12] = tested on: M. abscessus rough variant; test: microbe, parasite or virus in culture; type: cell-based; conditions: Mycobacteroides abscessus, read-out: Ma(R) MIC
[13] = Mycobacterium tuberculosis, HN878, read-out: Mtb HN878 IC50, dose-response curves
[14] = 10 wt % inhibitor, PBS pH 7.4, heating

M. tuberculosis MmpL3 (MtMmpL3), sequence (P9WJV5 whole entry): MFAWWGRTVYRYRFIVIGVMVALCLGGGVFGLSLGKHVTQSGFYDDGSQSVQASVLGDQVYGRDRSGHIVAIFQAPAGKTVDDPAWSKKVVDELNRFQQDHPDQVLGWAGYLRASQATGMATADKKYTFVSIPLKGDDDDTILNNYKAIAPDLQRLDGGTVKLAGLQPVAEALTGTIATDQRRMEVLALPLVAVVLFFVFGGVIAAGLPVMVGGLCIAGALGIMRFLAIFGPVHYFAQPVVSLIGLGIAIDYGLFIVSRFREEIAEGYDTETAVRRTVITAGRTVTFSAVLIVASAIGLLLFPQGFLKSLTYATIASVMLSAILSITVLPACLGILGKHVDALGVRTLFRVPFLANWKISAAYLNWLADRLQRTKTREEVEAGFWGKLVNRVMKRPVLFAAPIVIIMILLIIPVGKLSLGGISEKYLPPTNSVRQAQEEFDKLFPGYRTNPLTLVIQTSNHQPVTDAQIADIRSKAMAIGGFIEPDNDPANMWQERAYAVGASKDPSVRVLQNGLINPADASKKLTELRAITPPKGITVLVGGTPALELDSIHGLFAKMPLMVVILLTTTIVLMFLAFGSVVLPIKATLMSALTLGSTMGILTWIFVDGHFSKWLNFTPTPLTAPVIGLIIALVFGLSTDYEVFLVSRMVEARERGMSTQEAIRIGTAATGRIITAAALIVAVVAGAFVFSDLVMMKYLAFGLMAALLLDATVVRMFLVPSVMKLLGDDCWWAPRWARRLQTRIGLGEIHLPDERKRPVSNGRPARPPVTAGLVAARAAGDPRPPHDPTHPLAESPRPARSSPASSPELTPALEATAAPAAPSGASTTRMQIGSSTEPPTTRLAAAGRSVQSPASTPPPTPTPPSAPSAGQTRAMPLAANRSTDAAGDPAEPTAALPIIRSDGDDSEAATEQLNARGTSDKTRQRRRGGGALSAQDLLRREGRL

For `CCC1(NC(=O)CNCC=C(C)CCC=C(C)C)C2CC3CC(C2)CC1C3` (stereo not shown) [Compound 7c, 2-((3,7-Dimethylocta-2,6-dien-1-yl)amino)-N-(2-ethyladamantan-2-yl)acetamide], which “Ec IC50” value (E. coli) is on record?
The value was “No inhibition”.

What about the IC50 [1] of the same compound?
Its IC50 is 44 ± 11 µM.

What about the IC50 [2] of the same compound?
The IC50 was 3.2 ± 0.2 µM.

What about the IC50 [3] of the same compound?
The IC50 was 14 ± 0.04 µM.

And the CC50 (in vitro [4])?
The CC50 was 7.5 ± 0.6 µM.

What about the IC50 (Bacillus subtilis) of the same compound?
The IC50 was 1900 nM.

And the MIC (M. tuberculosis H37Rv)?
The MIC was 16 µM (≈ 5.96 µg/mL).

What about the IC50 [5] of the same compound?
The IC50 was 3.9 ± 0.3 µM.

And the IC50 (M. smegmatis)?
The IC50 was 7.7 µM.

And the MIC (M. tuberculosis Erdman)?
The MIC was 16 µM (≈ 5.96 µg/mL).

And the IC50 (M. tuberculosis HN878; [13])?
Its IC50 is 6.6 ± 0.2 µM.

What about the MIC (M. tuberculosis HN878; Mycobacterium tuberculosis) of the same compound?
The MIC was 6.25 µM (≈ 2.33 µg/mL).

What does the source list for `CCCCC1(NC(=O)CNCC=C(C)CCC=C(C)C)C2CC3CC(C2)CC1C3` (stereo not shown) [Compound 7e, 2-((3,7-Dimethylocta-2,6-dien-1-yl)amino)-N-(2-butyladamantan-2-yl)acetamide]?
Ec IC50 (E. coli): No inhibition; IC50 [1]: 25 ± 14 µM; IC50 [2]: 8.8 ± 1.3 µM; IC50 [3]: 48 ± 0.07 µM; CC50 (in vitro [4]): 15 ± 0.5 µM; IC50 (Bacillus subtilis): 2800 nM; MIC (M. tuberculosis H37Rv): 15 µM (≈ 6.01 µg/mL); IC50 [5]: 3 ± 0.2 µM; IC50 (M. smegmatis): 17 µM; MIC (M. tuberculosis Erdman): 15 µM (≈ 6.01 µg/mL); IC50 (M. tuberculosis HN878; [13]): 13 ± 0.3 µM; MIC (M. tuberculosis HN878; Mycobacterium tuberculosis): 12.5 µM (≈ 5.01 µg/mL)

What does the source list for `CC(C)=CCCC(C)=CCNCC(=O)NC1(Cc2ccccc2)C2CC3CC(C2)CC1C3` (stereo not shown) [Compound 7g, 2-((3,7-Dimethylocta-2,6-dien-1-yl)amino)-N-(2-benzyladamantan-2-yl)acetamide]?
Ec IC50 (E. coli): No inhibition; IC50 [1]: 27 ± 0.8 µM; IC50 [2]: 2.9 ± 0.3 µM; IC50 [3]: 17 ± 4 µM; CC50 (in vitro [4]): 7 ± 0.2 µM; IC50 (Bacillus subtilis): 2300 nM; MIC (M. tuberculosis H37Rv): 29 µM (≈ 12.6 µg/mL); IC50 [5]: 5.6 ± 1 µM; IC50 (M. smegmatis): 17 µM; MIC (M. tuberculosis Erdman): 29 µM (≈ 12.6 µg/mL)

Which results are given for `CC(C)=CCCC(C)=CCNCC(=O)NC1(c2ccccc2)C2CC3CC(C2)CC1C3` (stereo not shown) [Compound 7h, 2-((3,7-Dimethylocta-2,6-dien-1-yl)amino)-N-(2-phenyladamantan-2-yl)acetamide]?
Ec IC50 (E. coli): No inhibition; IC50 [1]: 26 ± 28 µM; IC50 [2]: 3.4 ± 0.2 µM; IC50 [3]: 18 ± 2 µM; CC50 (in vitro [4]): 7 ± 0.4 µM; IC50 (Bacillus subtilis): 4500 nM; MIC (M. tuberculosis H37Rv): 38 µM (≈ 16 µg/mL); IC50 [5]: 4.1 ± 0.6 µM; IC50 (M. smegmatis): 26 µM; MIC (M. tuberculosis Erdman): 38 µM (≈ 16 µg/mL)

For `CCC1(NCCNCC=C(C)CCC=C(C)C)C2CC3CC(C2)CC1C3` (stereo not shown) [Compound 8c, N-(3,7-dimethylocta-2,6-dien-1-yl)-N′-(2-ethyladamantan-2-yl)ethane-1,2-diamine], which IC50 (E. coli; Escherichia coli, read-out: Ec IC50) is on record?
Its IC50 is 18 µM.

And the IC50 [1]?
The IC50 was 2.1 ± 0.4 µM.

What about the IC50 [2] of the same compound?
Its IC50 is 1.3 ± 0.06 µM.

What about the IC50 [3] of the same compound?
The IC50 was 8 ± 2 µM.

What about the “Tm (main transition)” value [6, 14] of the same compound?
The value was 51.9 °C.

What about the ΔH [6, 14] of the same compound?
Its ΔH is 49.9 kJ/mol.

What about the ΔT1/2 [6, 14] of the same compound?
Its ΔT1/2 is 2.5 °C.

And the “Broadening of main transition peak ΔΤ1/2 compared to pure DSPG” value ([6]; heating)?
The value was 0.2–1.6 °C.

What about the IC50 ([7]; Plasmodium falciparum, read-out: PfABS IC50 (μM ± S.E.), asexual blood stages) of the same compound?
The IC50 was 0.16 ± 0.07 µM.

And the “Increased potency against PfABS compared to SQ109” value ([7]; versus SQ109 1.6 μM)?
Its value is ~ 10 fold.

And the “Tm (main transition)” value [8, 14]?
The value was 16.9 °C.

And the ΔH [8, 14]?
Its ΔH is 24.0 kJ/mol.

And the ΔT1/2 [8, 14]?
Its ΔT1/2 is 2.0 °C.

And the “Decrease of Tm compared to DMPC without inhibitor” value ([8]; heating)?
The value was about 6.6 °C.

What about the MIC [9] of the same compound?
The MIC was 22 µM (≈ 7.89 µg/mL).

What about the CC50 (in vitro [4]) of the same compound?
The CC50 was 2.5 ± 0.3 µM.

And the IC50 (Bacillus subtilis)?
Its IC50 is 4300 nM.

And the viability at 2 µM (in vitro [10])?
The viability at 2 µM was 85%.

And the viability at 20 µM (in vitro [10])?
Its viability at 20 µM is 43%.

What about the koff [11] of the same compound?
The koff was 0.841 s⁻¹.

What about the kon [11] of the same compound?
The kon was 4710 M⁻¹ s⁻¹.

What about the Kd ([11]; 1:1 model, 1:1 binding model, from ratio of rate constants) of the same compound?
The Kd was 180 µM.

What about the Kd ([11]; 2-state, two-state model, from rate constants) of the same compound?
Its Kd is 190 µM.

And the ka1 ([11]; two-state model)?
The ka1 was 5473 M⁻¹ s⁻¹.

What about the ka2 ([11]; two-state model) of the same compound?
The ka2 was 0.006994 s⁻¹.

And the kd1 ([11]; two-state model)?
The kd1 was 1.284 s⁻¹.

What about the kd2 ([11]; two-state model) of the same compound?
Its kd2 is 0.03012 s⁻¹.

And the MIC (M. tuberculosis H37Rv)?
The MIC was 6.8 µM (≈ 2.44 µg/mL).

What about the IC50 [5] of the same compound?
Its IC50 is 1.4 ± 0.2 µM.

What about the MIC [12] of the same compound?
The MIC was 10.7 µM (≈ 3.84 µg/mL).

And the IC50 (M. smegmatis)?
Its IC50 is 4 µM.

And the MIC (M. tuberculosis Erdman)?
Its MIC is 6.8 µM (≈ 2.44 µg/mL).

And the IC50 (M. tuberculosis HN878; [13])?
The IC50 was 2 to 3 µM.

What about the MIC (M. tuberculosis HN878; Mycobacterium tuberculosis) of the same compound?
The MIC was 1.6 µM (≈ 0.574 µg/mL).

And the IC50 (M. tuberculosis HN878; read-out: Mtb HN878 IC50, dose-response curves)?
Its IC50 is 1.9 ± 0.06 µM.
